Test system: MV-4-11 cells
Experiment: Gene expression microarray analysis (Affymetrix PrimeView) and GSEA
Assay type: cell-based, human
Set-up: RFU PODN (11730768_x_at) / Fold change /veh PODN (11730768_x_at) / RFU LINC00158 (11744669_a_at) / Fold change /veh LINC00158 (11744669_a_at) / RFU DUSP10 (11751237_a_at) / Fold change /veh DUSP10 (11751237_a_at) / RFU ID3 (11757404_x_at) / Fold change /veh ID3 (11757404_x_at) / RFU PLEKHG5 (11737974_s_at) / Fold change /veh PLEKHG5 (11737974_s_at) / RFU LRRC4B (11730491_at) / Fold change /veh LRRC4B (11730491_at) / RFU GIMAP4 (11747438_a_at) / Fold change /veh GIMAP4 (11747438_a_at) / RFU KRT8 (11758183_x_at) / Fold change /veh KRT8 (11758183_x_at) / RFU CNN1 (11734310_a_at) / Fold change /veh CNN1 (11734310_a_at) / RFU VPS37D (11726825_at) / Fold change /veh VPS37D (11726825_at) / RFU C10orf10 (11716522_x_at) / Fold change /veh C10orf10 (11716522_x_at) / RFU KIR2DL2 /// KIR2DL4 /// KIR2DL5A /// KIR2DL5B /// KIR2DS1 /// KIR2DS2 /// KIR2DS3 /// KIR2DS4 /// KIR3DL3 /// KIR3DL3 /// KIR3DS1 (11738374_at) / Fold change /veh KIR2DL2 /// KIR2DL4 /// KIR2DL5A /// KIR2DL5B /// KIR2DS1 /// KIR2DS2 /// KIR2DS3 /// KIR2DS4 /// KIR3DL3 /// KIR3DL3 /// KIR3DS1 (11738374_at) / RFU C1QL1 (11718748_at) / Fold change /veh C1QL1 (11718748_at) / RFU TMPRSS4 (11747572_a_at) / Fold change /veh TMPRSS4 (11747572_a_at) / RFU HAMP (11756126_x_at) / Fold change /veh HAMP (11756126_x_at) / RFU RNFT2 (11725882_a_at) / Fold change /veh RNFT2 (11725882_a_at) / RFU NR4A2 (11747474_a_at) / Fold change /veh NR4A2 (11747474_a_at) / RFU ABCC12 (11746883_a_at) / Fold change /veh ABCC12 (11746883_a_at) / RFU TMEM136 (11760407_x_at) / Fold change /veh TMEM136 (11760407_x_at) / RFU CLDN22 /// WWC2 (11732394_at) / Fold change /veh CLDN22 /// WWC2 (11732394_at) / RFU HLA-DPB1 (11760878_x_at) / Fold change /veh HLA-DPB1 (11760878_x_at) / RFU SPINT1 (11716480_a_at) / Fold change /veh SPINT1 (11716480_a_at) / RFU GAP43 (11754022_s_at) / Fold change /veh GAP43 (11754022_s_at) / RFU A4GNT (11735810_at) / Fold change /veh A4GNT (11735810_at) / RFU PRB3 (11715151_x_at) / Fold change /veh PRB3 (11715151_x_at) / RFU TUBB4B (11761932_at) / Fold change /veh TUBB4B (11761932_at) / RFU CAPN14 (11732068_a_at) / Fold change /veh CAPN14 (11732068_a_at) / RFU TMCC2 (11721928_a_at) / Fold change /veh TMCC2 (11721928_a_at) / RFU IRGQ (11745062_a_at) / Fold change /veh IRGQ (11745062_a_at) / RFU FAM174B (11720279_a_at) / Fold change /veh FAM174B (11720279_a_at) / RFU TMPRSS4 (11748680_a_at) / Fold change /veh TMPRSS4 (11748680_a_at) / RFU FAM212B (11763350_a_at) / Fold change /veh FAM212B (11763350_a_at) / RFU PLEKHG5 (11743358_a_at) / Fold change /veh PLEKHG5 (11743358_a_at) / RFU ZSCAN30 (11745921_a_at) / Fold change /veh ZSCAN30 (11745921_a_at) / RFU CMKLR1 (11741424_a_at) / Fold change /veh CMKLR1 (11741424_a_at) / RFU LOC101060620 /// MAPK8IP1 (11723275_at) / Fold change /veh LOC101060620 /// MAPK8IP1 (11723275_at) / RFU SPTSSB (11747773_x_at) / Fold change /veh SPTSSB (11747773_x_at) / RFU PRSS12 (11739890_at) / Fold change /veh PRSS12 (11739890_at) / RFU BIN1 (11741810_x_at) / Fold change /veh BIN1 (11741810_x_at) / RFU WNT11 (11732464_a_at) / Fold change /veh WNT11 (11732464_a_at) / RFU C10orf10 (11716521_a_at) / Fold change /veh C10orf10 (11716521_a_at) / RFU C5orf56 (11738089_at) / Fold change /veh C5orf56 (11738089_at) / RFU CYB561 (11721691_x_at) / Fold change /veh CYB561 (11721691_x_at) / RFU ANKRD19P (11752326_a_at) / Fold change /veh ANKRD19P (11752326_a_at) / RFU OR2T12 /// OR2T33 /// OR2T8 (11738714_s_at) / Fold change /veh OR2T12 /// OR2T33 /// OR2T8 (11738714_s_at) / RFU VCAN (11748164_a_at) / Fold change /veh VCAN (11748164_a_at) / RFU JSRP1 (11732532_at) / Fold change /veh JSRP1 (11732532_at) / RFU KRTAP10-11 (11738290_x_at) / Fold change /veh KRTAP10-11 (11738290_x_at) / RFU MYO3A (11730013_a_at) / Fold change /veh MYO3A (11730013_a_at) / RFU EBF3 (11725865_a_at) / Fold change /veh EBF3 (11725865_a_at) / RFU CAMK2N1 (11719241_x_at) / Fold change /veh CAMK2N1 (11719241_x_at) / RFU C5orf56 (11738088_a_at) / Fold change /veh C5orf56 (11738088_a_at) / RFU OLFML3 (11715873_a_at) / Fold change /veh OLFML3 (11715873_a_at) / RFU LOC100653217 /// NTM (11731650_a_at) / Fold change /veh LOC100653217 /// NTM (11731650_a_at) / RFU MAPK11 (11762145_a_at) / Fold change /veh MAPK11 (11762145_a_at) / RFU FIZ1 (11724087_x_at) / Fold change /veh FIZ1 (11724087_x_at) / RFU OASL (11726364_x_at) / Fold change /veh OASL (11726364_x_at) / RFU SOX15 (11748057_x_at) / Fold change /veh SOX15 (11748057_x_at) / RFU CD79A (11719716_a_at) / Fold change /veh CD79A (11719716_a_at) / RFU HIST1H1D (11736915_at) / Fold change /veh HIST1H1D (11736915_at) / RFU CASKIN2 (11723855_a_at) / Fold change /veh CASKIN2 (11723855_a_at) / RFU LOC730098 (11760151_x_at) / Fold change /veh LOC730098 (11760151_x_at) / RFU OR4N2 (11742367_at) / Fold change /veh OR4N2 (11742367_at) / RFU PRRT2 (11749266_a_at) / Fold change /veh PRRT2 (11749266_a_at) / RFU SNX32 (11753110_a_at) / Fold change /veh SNX32 (11753110_a_at) / RFU CDHR5 (11726645_a_at) / Fold change /veh CDHR5 (11726645_a_at) / RFU RCAN1 (11760418_a_at) / Fold change /veh RCAN1 (11760418_a_at) / RFU FAM167A (11723789_a_at) / Fold change /veh FAM167A (11723789_a_at) / RFU FAM26E (11764081_at) / Fold change /veh FAM26E (11764081_at) / RFU ISYNA1 (11749810_s_at) / Fold change /veh ISYNA1 (11749810_s_at) / RFU ACY1 (11761880_at) / Fold change /veh ACY1 (11761880_at) / RFU 11764098_at / Fold change /veh 11764098_at / RFU SAMD14 (11745864_x_at) / Fold change /veh SAMD14 (11745864_x_at) / RFU NPB (11741838_a_at) / Fold change /veh NPB (11741838_a_at) / RFU TMPRSS6 (11731388_a_at) / Fold change /veh TMPRSS6 (11731388_a_at) / RFU KRTAP10-2 (11738614_at) / Fold change /veh KRTAP10-2 (11738614_at) / RFU ARHGAP8 /// PRR5-ARHGAP8 (11727945_x_at) / Fold change /veh ARHGAP8 /// PRR5-ARHGAP8 (11727945_x_at) / RFU KRTAP5-7 /// NADSYN1 (11734609_at) / Fold change /veh KRTAP5-7 /// NADSYN1 (11734609_at) / RFU RASL12 (11751679_a_at) / Fold change /veh RASL12 (11751679_a_at) / RFU CDKN2B (11736163_a_at) / Fold change /veh CDKN2B (11736163_a_at) / RFU PRF1 (11729649_at) / Fold change /veh PRF1 (11729649_at) / RFU, ZNF638 /// ZNF638-IT1 / Fold change vs veh, ZNF638 /// ZNF638-IT1 / RFU, PANK3 / Fold change vs veh, PANK3 / RFU, SH3YL1 / Fold change vs veh, SH3YL1 / RFU, ZEB2 / Fold change vs veh, ZEB2 / RFU, NRIP1 / Fold change vs veh, NRIP1 / RFU, PTTG1IP / Fold change vs veh, PTTG1IP / RFU, CAPN2 / Fold change vs veh, CAPN2 / RFU, MED14 / Fold change vs veh, MED14 / RFU, SNORA58 / Fold change vs veh, SNORA58 / RFU, C1orf63 / Fold change vs veh, C1orf63 / RFU, LRRFIP1 / Fold change vs veh, LRRFIP1 / RFU, NDUFAF7 / Fold change vs veh, NDUFAF7 / RFU, SLC12A2 / Fold change vs veh, SLC12A2 / RFU, IBTK / Fold change vs veh, IBTK / RFU, ESF1 / Fold change vs veh, ESF1 / Fold change vs veh, TMEM50B / RFU, TAOK1 / Fold change vs veh, TAOK1 / RFU, ACBD3 / Fold change vs veh, ACBD3 / RFU, TMA16 / Fold change vs veh, TMA16 / RFU, RWDD3 / Fold change vs veh, RWDD3 / RFU, BCAT1 / Fold change vs veh, BCAT1 / RFU, EDEM3 / Fold change vs veh, EDEM3 / RFU, TMEM33 / Fold change vs veh, TMEM33 / RFU, WDR75 / Fold change vs veh, WDR75 / RFU, AHCTF1 / Fold change vs veh, AHCTF1 / RFU, TFRC / Fold change vs veh, TFRC / RFU, ZDHHC17 / Fold change vs veh, ZDHHC17 / RFU, NOM1 / Fold change vs veh, NOM1 / RFU, ARL8B / Fold change vs veh, ARL8B / RFU, ZBTB11 / Fold change vs veh, ZBTB11 / RFU, TAMM41 / Fold change vs veh, TAMM41 / RFU, KIAA1704 /// LOC100996395 / Fold change vs veh, KIAA1704 /// LOC100996395 / RFU, ING1 / Fold change vs veh, ING1 / RFU, TRMT61B / Fold change vs veh, TRMT61B / RFU, FUBP3 / Fold change vs veh, FUBP3 / RFU, TP53 / Fold change vs veh, TP53 / RFU, TNKS2 / Fold change vs veh, TNKS2 / RFU, ZFP14 / Fold change vs veh, ZFP14 / RFU, ACTR2 / Fold change vs veh, ACTR2 / RFU, PPP3R1 / Fold change vs veh, PPP3R1 / RFU, PIK3R1 / Fold change vs veh, PIK3R1 / RFU, HNRNPA1 / Fold change vs veh, HNRNPA1 / RFU, RNF170 / Fold change vs veh, RNF170 / RFU, ZNF28 / Fold change vs veh, ZNF28 / RFU, RNGTT / Fold change vs veh, RNGTT / RFU, OGT / Fold change vs veh, OGT / RFU, BRD1 / Fold change vs veh, BRD1 / RFU, MARS / Fold change vs veh, MARS / RFU, ZNF655 / Fold change vs veh, ZNF655 / RFU, FAHD1 / Fold change vs veh, FAHD1 / RFU, BDP1 / Fold change vs veh, BDP1 / RFU, LRRCC1 / Fold change vs veh, LRRCC1 / RFU, ARID1A / Fold change vs veh, ARID1A / RFU, ZNF146 / Fold change vs veh, ZNF146 / RFU, ZNF330 / Fold change vs veh, ZNF330 / RFU, GPN3 / Fold change vs veh, GPN3 / RFU, C9orf123 / Fold change vs veh, C9orf123 / RFU, N4BP2L2 / Fold change vs veh, N4BP2L2 / RFU, ARFIP1 / Fold change vs veh, ARFIP1 / RFU, FAM179B / Fold change vs veh, FAM179B / RFU, BCL10 / Fold change vs veh, BCL10 / RFU, UHRF1BP1L / Fold change vs veh, UHRF1BP1L / RFU, BET1 / Fold change vs veh, BET1 / RFU, CNOT2 / Fold change vs veh, CNOT2 / RFU, ZNF268 / Fold change vs veh, ZNF268 / Fold change vs veh, ZNF507 / RFU, DGCR2 / Fold change vs veh, DGCR2 / RFU, WDSUB1 / Fold change vs veh, WDSUB1 / Fold change vs veh, HSP90B1 /// MIR3652 / RFU, ADSS / Fold change vs veh, ADSS / RFU, GK / Fold change vs veh, GK / RFU, ZNF148 / Fold change vs veh, ZNF148 / RFU, TAF9 / Fold change vs veh, TAF9 / RFU, SLC1A5 / Fold change vs veh, SLC1A5 / RFU, SLMO2 / Fold change vs veh, SLMO2 / RFU, ABCC4 / Fold change vs veh, ABCC4 / RFU, LOC101060439 /// RAP1B / Fold change vs veh, LOC101060439 /// RAP1B / RFU, RFX7 / Fold change vs veh, RFX7 / RFU, GTPBP10 / Fold change vs veh, GTPBP10 / RFU, CNEP1R1 / Fold change vs veh, CNEP1R1 / RFU, BIVM-ERCC5 /// ERCC5 / Fold change vs veh, BIVM-ERCC5 /// ERCC5 / RFU, ILF3 / Fold change vs veh, ILF3 / RFU 11762660_at / Fold change /veh 11762660_at / RFU VCAN (11757783_s_at) / Fold change /veh VCAN (11757783_s_at) / RFU DDX43 (11728927_at) / Fold change /veh DDX43 (11728927_at) / RFU KRT8 (11758188_x_at) / Fold change /veh KRT8 (11758188_x_at) / RFU NKD1 (11759106_at) / Fold change /veh NKD1 (11759106_at) / RFU SRD5A1 (11742802_a_at) / Fold change /veh SRD5A1 (11742802_a_at) / RFU TPSAB1 /// TPSB2 (11721975_s_at) / Fold change /veh TPSAB1 /// TPSB2 (11721975_s_at) / RFU GSTM3 (11746129_a_at) / Fold change /veh GSTM3 (11746129_a_at) / RFU IL23R (11737362_x_at) / Fold change /veh IL23R (11737362_x_at) / RFU TMEM51 (11727254_a_at) / Fold change /veh TMEM51 (11727254_a_at) / RFU PIWIL2 (11732686_x_at) / Fold change /veh PIWIL2 (11732686_x_at) / RFU ORM1 (11744905_x_at) / Fold change /veh ORM1 (11744905_x_at) / RFU CCDC152 (11743942_at) / Fold change /veh CCDC152 (11743942_at) / RFU ECM1 (11717891_a_at) / Fold change /veh ECM1 (11717891_a_at) / RFU IL23R (11748794_a_at) / Fold change /veh IL23R (11748794_a_at) / RFU TNFAIP8L3 (11732012_x_at) / Fold change /veh TNFAIP8L3 (11732012_x_at) / RFU MBOAT4 (11741988_at) / Fold change /veh MBOAT4 (11741988_at) / RFU 11764193_at / Fold change /veh 11764193_at / RFU TMEM53 (11763286_at) / Fold change /veh TMEM53 (11763286_at) / RFU MAGEB2 (11727129_at) / Fold change /veh MAGEB2 (11727129_at) / RFU TMEM200A (11744735_a_at) / Fold change /veh TMEM200A (11744735_a_at) / RFU CCDC152 (11751479_a_at) / Fold change /veh CCDC152 (11751479_a_at) / RFU FAM211A (11726209_a_at) / Fold change /veh FAM211A (11726209_a_at) / RFU RGS16 (11746705_a_at) / Fold change /veh RGS16 (11746705_a_at) / RFU VCAN (11755009_s_at) / Fold change /veh VCAN (11755009_s_at) / RFU RHOB (11743442_s_at) / Fold change /veh RHOB (11743442_s_at) / RFU RGS16 (11720943_a_at) / Fold change /veh RGS16 (11720943_a_at) / RFU RGS16 (11720944_at) / Fold change /veh RGS16 (11720944_at) / RFU, VPS4B / Fold change vs veh, VPS4B / RFU, CREB1 / Fold change vs veh, CREB1 / RFU, DNAJC13 / Fold change vs veh, DNAJC13 / RFU, GNAQ / Fold change vs veh, GNAQ / RFU, CDK5R1 / Fold change vs veh, CDK5R1 / RFU, ZRANB3 / Fold change vs veh, ZRANB3 / RFU, CUL4A / Fold change vs veh, CUL4A / RFU, CCNY / Fold change vs veh, CCNY / RFU, UFL1 / Fold change vs veh, UFL1 / RFU, COG3 / Fold change vs veh, COG3 / RFU, DIAPH2 / Fold change vs veh, DIAPH2 / RFU, SKA2 / Fold change vs veh, SKA2 / RFU, AFF3 / Fold change vs veh, AFF3 / RFU, LMF1 / Fold change vs veh, LMF1 / RFU, IPO11 / Fold change vs veh, IPO11 / RFU, DFFB / Fold change vs veh, DFFB / RFU, FOXP1 / Fold change vs veh, FOXP1 / RFU, CARD8 / Fold change vs veh, CARD8 / RFU, STRN3 / Fold change vs veh, STRN3 / RFU, ADK / Fold change vs veh, ADK / RFU, RASSF2 / Fold change vs veh, RASSF2 / RFU, WIPF1 / Fold change vs veh, WIPF1 / RFU, LARP1B / Fold change vs veh, LARP1B / RFU, RASA1 / Fold change vs veh, RASA1 / RFU, RB1 / Fold change vs veh, RB1 / RFU, PPFIA1 / Fold change vs veh, PPFIA1 / RFU, MAT2A / Fold change vs veh, MAT2A / RFU, CCT5 / Fold change vs veh, CCT5 / RFU, WDR92 / Fold change vs veh, WDR92 / RFU, CUX1 / Fold change vs veh, CUX1 / RFU, TTC7A / Fold change vs veh, TTC7A / RFU, TMEM135 / Fold change vs veh, TMEM135 / RFU, DEPTOR / Fold change vs veh, DEPTOR / RFU, CPM / Fold change vs veh, CPM / RFU, DNAJB6 / Fold change vs veh, DNAJB6 / RFU, CACNA2D3 / Fold change vs veh, CACNA2D3 / RFU, DTX4 / Fold change vs veh, DTX4 / RFU, TFCP2 / Fold change vs veh, TFCP2 / RFU, GMCL1 /// GMCL1P1 / Fold change vs veh, GMCL1 /// GMCL1P1 / RFU, AEBP2 / Fold change vs veh, AEBP2 / RFU, SNHG1 /// SNORD22 /// SNORD25 /// SNORD26 /// SNORD27 /// SNORD28 /// SNORD29 /// SNORD31 / Fold change vs veh, SNHG1 /// SNORD22 /// SNORD25 /// SNORD26 /// SNORD27 /// SNORD28 /// SNORD29 /// SNORD31 / Fold change (Aza/veh), C12orf56 (ProbeSet 11735607_a_at) / Fold change (ACY-1035/veh), C12orf56 (ProbeSet 11735607_a_at) / Fold change (Aza/veh), FGFR1OP (ProbeSet 11751329_s_at) / Fold change (ACY-1035/veh), FGFR1OP (ProbeSet 11751329_s_at) / Fold change (Aza/veh), VPS36 (ProbeSet 11739960_a_at) / Fold change (ACY-1035/veh), VPS36 (ProbeSet 11739960_a_at) / RFU SYPL1 (11715823_x_at) / Fold change /veh SYPL1 (11715823_x_at) / RFU IGFBP7 (11715501_s_at) / Fold change /veh IGFBP7 (11715501_s_at) / RFU REEP3 (11722064_at) / Fold change /veh REEP3 (11722064_at) / RFU IGLL1 (11728026_x_at) / Fold change /veh IGLL1 (11728026_x_at): dose or concentration left out as unconfirmed
Conditions: ProbeSet 11743882_a_at; LIST D

## Nc1ccc(-c2cccs2)cc1NC(=O)c1ccc2c(c1)cc(C1CC1)n2CCN1CCOCC1 [ACY-1035]
  Fold change vs veh, STRN3: 0.92
